Measurements reported in US7713966B2, “Heterobicyclic metalloprotease inhibitors” (Alantos Pharmaceuticals Holding, Inc., priority 2006, dated 2010).

Columns and labels:
[1] = molecular target: T1, catalytic domain of MMP-13 enzyme (Homo sapiens, UniProt P45452); assay: Assay for determining MMP-13 inhibition (fluorescent substrate); type: biochemical; conditions: read-out: MMP-13 Activity (IC50 MMP-13), Group
T1 construct: catalytic domain of MMP-13 enzyme (produced by Alantos or commercially available from Invitek (Berlin), Cat. # 30100812); purchased Invitek (Berlin) 30100812
Method: The typical assay for MMP-13 activity is carried out in assay buffer comprised of 50 mM Tris, pH 7.5, 150 mM NaCl, 5 mM CaCl2 and 0.05% Brij-35. Different concentrations of tested compounds are prepared in assay buffer in 50 μL aliquots. 10 μL of a 50 nM stock solution of catalytic domain of MMP-13 enzyme (produced by Alantos or commercially available from Invitek (Berlin), Cat. # 30100812) is added to the compound solution. The mixture of enzyme and compound in assay buffer is thoroughly mixed and incubated for 10 min at room temperature. Upon the completion of incubation, the assay is started by addition of 40 μl of a 12.5 μM stock solution of MMP-13 fluorescent substrate (Calbiochem, Cat. No. 444235). The time-dependent increase in fluorescence is measured at the 320 nm excitation and 390 nm emission by automatic plate multireader. The IC50 values are calculated from the initial reaction rates.

activated MMP-8 enzyme = molecular target: T2, activated MMP-8 enzyme (Homo sapiens, UniProt P22894); assay: Assay for determining MMP-8 inhibition (OmniMMP fluorescent substrate); type: biochemical; conditions: read-out: MMP-8 Activity (IC50 MMP-8), Group
T2 construct: purchased Calbiochem 444229
T2 sequence (P22894 101-467): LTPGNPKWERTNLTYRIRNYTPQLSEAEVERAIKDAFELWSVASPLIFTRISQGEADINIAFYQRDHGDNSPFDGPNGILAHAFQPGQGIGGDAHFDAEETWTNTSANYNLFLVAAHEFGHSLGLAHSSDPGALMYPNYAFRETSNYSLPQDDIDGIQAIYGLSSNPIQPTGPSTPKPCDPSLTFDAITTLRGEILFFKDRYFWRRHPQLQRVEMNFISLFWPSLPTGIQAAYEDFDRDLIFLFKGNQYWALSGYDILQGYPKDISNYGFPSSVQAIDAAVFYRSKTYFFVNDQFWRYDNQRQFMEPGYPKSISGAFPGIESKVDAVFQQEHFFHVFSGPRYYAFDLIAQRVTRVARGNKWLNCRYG
Method: The typical assay for MMP-8 activity is carried out in assay buffer comprised of 50 mM Tris, pH 7.5, 150 mM NaCl, 5 mM CaCl2 and 0.05% Brij-35. Different concentrations of tested compounds are prepared in assay buffer in 50 μL aliquots. 10 μL of a 50 nM stock solution of activated MMP-8 enzyme (Calbiochem, Cat. No. 444229) is added to the compound solution. The mixture of enzyme and compound in assay buffer is thoroughly mixed and incubated for 10 min at 37° C. Upon the completion of incubation, the assay is started by addition of 40 μL of a 10 μM stock solution of OmniMMP fluorescent substrate (Biomol, Cat. No. P-126). The time-dependent increase in fluorescence is measured at the 320 nm excitation and 390 nm emission by an automatic plate multireader at 37° C. The IC50 values are calculated from the initial reaction rates.

SMILES	IC50 [1] [µM]	IC50 (activated MMP-8 enzyme) [µM]
C[C@@H](Nc1cccc2nc(C(=O)NCc3ccc4c(c3)NC(=O)CO4)[nH]c(=O)c12)c1ccccc1 [36/2]	< 0.1	< 0.25
NC(=O)[C@@H]1CCCN1c1cccc2nc(C(=O)NCc3ccc4c(c3)NC(=O)CO4)[nH]c(=O)c12 [36/8]	< 0.1	–
C[C@H](O)CNc1cccc2nc(C(=O)NCc3ccc4c(c3)NC(=O)CO4)[nH]c(=O)c12 [36/13]	–	< 0.25
O=C1COc2ccc(CNC(=O)c3nc4snnc4c(=O)[nH]3)cc2N1 [39/6]	0.1 to 20	–
COc1cccc2c(=O)[nH]c(C(=O)NCc3ccc4c(c3)NC(=O)CO4)nc12 [39/21]	0.1 to 20	–
O=C1COc2ccc(CNC(=O)c3nc4c(Br)cc(F)cc4c(=O)[nH]3)cc2N1 [39/23]	< 0.1	–
Cc1cccc2nc(C(=O)NCc3cccc(CNc4c(N)c(=O)c4=O)c3)[nH]c(=O)c12 [Example 2/15]	–	0.25 to 20
O=C1COc2ccc(CNC(=O)c3nc4ccc([N+](=O)[O-])cc4c(=O)[nH]3)cc2N1 [Example 2/57]	< 0.1	0.25 to 20
NC(=O)Cc1csc2nc(C(=O)NCc3ccc4c(c3)NC(=O)CO4)[nH]c(=O)c12 [Example 2/156]	–	< 0.25
O=C1COc2ccc(CNC(=O)c3nc4ccc(C(=O)O)cc4c(=O)[nH]3)cc2N1 [Example 3]	< 0.1	–
O=C1COc2ccc(CNC(=O)c3nc4ccc(-c5nnn[nH]5)cc4c(=O)[nH]3)cc2N1 [Example 11]	< 0.1	–
O=C(O)CCC(=O)NCc1ccc2nc(C(=O)NCc3ccc4c(c3)NC(=O)CO4)[nH]c(=O)c2c1 [Example 17]	< 0.1	< 0.25
Cc1c(CO)sc2nc(C(=O)NCc3ccc4c(c3)NC(=O)CO4)[nH]c(=O)c12 [Example 20a]	< 0.1	–
Cc1c(CO)sc2nc(C(=O)NCc3ccc4c(c3)NCCO4)[nH]c(=O)c12 [Example 20c]	< 0.1	< 0.25
Cc1sc2nc(C(=O)NCc3ccc4c(c3)NS(=O)(=O)CO4)[nH]c(=O)c2c1C [Example 38]	0.1 to 20	–

The remaining lines, values ahead:

IC50 [1] [µM]	IC50 (activated MMP-8 enzyme) [µM]	SMILES
–	< 0.25	C[C@@H](Nc1cccc2nc(C(=O)NCc3ccc4c(c3)NC(=O)CO4)[nH]c(=O)c12)C(=O)OC(C)(C)C [36/6]
< 0.1	< 0.25	C[C@@H](O)CNc1cccc2nc(C(=O)NCc3ccc4c(c3)NC(=O)CO4)[nH]c(=O)c12 [36/12]
< 0.1	–	O=C1COc2ccc(CNC(=O)c3nc4cccc(C(F)(F)F)c4c(=O)[nH]3)cc2N1 [39/1]
0.1 to 20	–	O=C1COc2ccc(CNC(=O)c3nc4nonc4c(=O)[nH]3)cc2N1 [39/3]
0.1 to 20	–	Cc1noc2nc(C(=O)NCc3ccc4c(c3)NC(=O)CO4)[nH]c(=O)c12 [39/12]
< 0.1	< 0.25	O=C1COc2ccc(CNC(=O)c3nc4cc([N+](=O)[O-])ccc4c(=O)[nH]3)cc2N1 [39/22]
< 0.1	0.25 to 20	Nc1c(N2CCc3ccc(CNC(=O)c4nc5cc(F)c(F)cc5c(=O)[nH]4)cc3C2)c(=O)c1=O [39/24]
< 0.1	–	O=C1COc2ccc(CNC(=O)c3nc4sccc4c(=O)[nH]3)cc2N1 [Example 1]
< 0.1	0.25 to 20	O=C(NCc1ccc2c(c1)OCO2)c1nc2ccccc2c(=O)[nH]1 [Example 2/5]
< 0.1	< 0.25	Nc1ccc2nc(C(=O)NCc3ccc4c(c3)NC(=O)CO4)[nH]c(=O)c2c1 [Example 5]
< 0.1	–	O=C1COc2ccc(CNC(=O)c3nc4ccc(C#Cc5ccccc5)cc4c(=O)[nH]3)cc2N1 [Example 8/1]
< 0.1	< 0.25	C#Cc1ccc2nc(C(=O)NCc3ccc4c(c3)NC(=O)CO4)[nH]c(=O)c2c1 [Example 8]
< 0.1	–	NCc1ccc2nc(C(=O)NCc3ccc4c(c3)NC(=O)CO4)[nH]c(=O)c2c1 [Example 15]
< 0.1	< 0.25	CC(=NO)c1sc2nc(C(=O)NCc3ccc4c(c3)NC(=O)CO4)[nH]c(=O)c2c1C [Example 16]
0.1 to 20	–	CCOC(=O)c1sc2nc(C(=O)NCc3ccc4c(c3)NCCO4)[nH]c(=O)c2c1C [Example 20b]
< 0.1	–	CC(=O)OCc1sc2nc(C(=O)NCc3ccc4c(c3)N(C(C)=O)CCO4)[nH]c(=O)c2c1C [Example 24]
0.1 to 20	–	CC(=O)N1CCOc2ccc(CNC(=O)c3nc4sc(CO)c(C)c4c(=O)[nH]3)cc21 [Example 25]
